Ends that are not written are not given here. * marks the point of attachment. Biotin = O=C1N[C@H]2[C@H](CS[C@H]2CCCCC(=O)*)N1
Key:
monoclonal antibody SP31 = conditions: peptide analog of substance P comprising an alanine at position 10 [Ala^10]; cited from earlier work
neutravidin = target: T1, neutravidin (Gallus gallus, UniProt P02701); experiment: Attachment of the fluorescein-labeled tripod Y to neutravidin-coated microtitration plates (fluorescence); format: binding; conditions: neutravidin-coated microplate, 3 hours at ambient temperature, excitation 485 nm / emission 530 nm
T1 construct: purchased Pierce 31 000
T1 sequence (P02701 25-152): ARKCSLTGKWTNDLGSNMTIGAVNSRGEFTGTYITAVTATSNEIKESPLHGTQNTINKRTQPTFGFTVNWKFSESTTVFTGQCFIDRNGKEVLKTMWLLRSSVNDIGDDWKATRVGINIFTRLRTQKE
Protocol: 100 μl of a solution of neutravidin (sold under the reference 31 000 by the company Pierce) at 5 μg/ml in a 0.1 M potassium phosphate buffer, pH 7.4 are deposited into the wells of black microplates sold under the name High Bind Matrix by the company VWR (reference 80120696). After 16 hours at ambient temperature, the plates are washed with washing buffer and then saturated by depositing 300 μl/well of saturation buffer for 16 hours at ambient temperature. The plates are stored with the same buffer (300 μl/well) at 4° C.
A dilution range for the tripod Y (labeled with fluorescein) synthesized above in example 4, in 0.1 M potassium phosphate buffer, pH 7.4, is prepared by producing a first point of the range at a concentration of 0.5 μM, and then 4 successive ⅓ dilutions (i.e. 0.167 μM; 0.055 μM; 0.0185 μM and 6.2×10^−3 μM). […] The plate is read with an analyst AD system fluorimeter (LJL Biosystem) for reading microplates, at an excitation wavelength of 485 nm and at an emission wavelength of 530 nm, which are the excitation and emission wavelengths corresponding to fluorescein.
The curves obtained with neutravidin (black square) and without neutravidin (black triangle: control) are represented in the attached FIG. 2, in which the fluorescence (in arbitrary units) is expressed as a function of the concentration of tripod Y in accordance with the invention (μM).

Substance | cross reactivity with substance P for the monoclonal antibody SP31 (monoclonal antibody SP31) | concentration of tripod up to which fluorescence increases proportionally, then plateau (saturation of the neutravidin binding sites) (neutravidin)
KSSK(Biotin)RPAPQQFFGAM-NH2 [substance P analog] | 13% | 
tripod: substance P analog (SEQ ID No. 2) labeled with fluorescein; biotin for attachment to neutravidin support (GATCTGCTGGCATCT; fluorescein label and biotin, positions not given here) |  | 0.17 µM
